One may read the IC50 as the midpoint of a concentration-inhibition curve. As usually defined, the melting point is the temperature, or range, at which the solid turns liquid.

Each structure is given as a SMILES string.

One series concerns MCF-7. As to the kind of experiment: Anti-proliferative activity, SRB colorimetric assay. Type of series: cell-based. Particulars: for IC50: Homo sapiens, MCF7, MCF-7 cancer cell line, SRB assay, read-out: Cell lines (IC50 μM) MCF-7; for anti-proliferative activity against MCF-7, in words: authors' grading of Table 1 values, key not given.
For the next series, the system named is B. subtilis. As to the kind of experiment: Antibacterial activity, inhibition zone approach. The format is cell-based, Bacillus subtilis. The conditions noted are these: for B. subtilis Diameter of inhibition zone (mm): Gram-positive bacteria; for B. subtilis % Activity index: gentamicin = 100.
The next series deals with S. aureus. The experiment in a line: Antibacterial activity, inhibition zone approach. Type of series: cell-based, Staphylococcus aureus. The conditions noted are these: for S. aureus Diameter of inhibition zone (mm): Gram-positive bacteria; for S. aureus % Activity index: gentamicin = 100.
In another series the test system is HepG-2. As to the kind of experiment: Anti-proliferative activity, SRB colorimetric assay. Particulars: for IC50: Homo sapiens, HepG2, HepG-2 cancer cell line, SRB assay, read-out: Cell lines (IC50 μM) HepG-2; for anti-proliferative activity against HepG-2, in words: authors' grading of Table 1 values, key not given. Type of series: cell-based. In general terms: Sulforhodamine B stains cellular protein and so reports cell mass.

The next series concerns the target EGFR (Homo sapiens, UniProt P00533). The experiment in a line: EGFR inhibitory activity, homogeneous luminescence release assay. Type of series: biochemical. The conditions noted are these: reference erlotinib; read-out: EGFR inhibition IC50.
The next series concerns E. coli. As to the kind of experiment: Antibacterial activity, inhibition zone approach. Type of series: cell-based, Escherichia coli. Particulars: for E. coli Diameter of inhibition zone (mm): Gram-negative bacteria; for E. coli % Activity index: gentamicin = 100.
The next series concerns P. aeuroginosa. As to the kind of experiment: Antibacterial activity, inhibition zone approach. The format is cell-based, Pseudomonas aeuroginosa. The conditions noted are these: for P. aeuroginosa Diameter of inhibition zone (mm): Gram-negative bacteria; for P. aeuroginosa % Activity index: gentamicin = 100.
In a further series the test system is A. flavus. The experiment in a line: Antifungal activity, inhibition zone approach. The conditions noted are these: for A. flavus Diameter of inhibition zone (mm): Fungi; for A. flavus % Activity index: ketoconazole = 100. The format is cell-based, Aspergillus flavus.
The next series relates to C. albicans. The experiment in a line: Antifungal activity, inhibition zone approach. Type of series: cell-based, Candida albicans. The conditions noted are these: for C. albicans Diameter of inhibition zone (mm): Fungi; for C. albicans % Activity index: ketoconazole = 100.
The mark [1] stands for this setting: authors' grading of Table 2 values, key not given.

Chain of EGFR (P00533 25-1210): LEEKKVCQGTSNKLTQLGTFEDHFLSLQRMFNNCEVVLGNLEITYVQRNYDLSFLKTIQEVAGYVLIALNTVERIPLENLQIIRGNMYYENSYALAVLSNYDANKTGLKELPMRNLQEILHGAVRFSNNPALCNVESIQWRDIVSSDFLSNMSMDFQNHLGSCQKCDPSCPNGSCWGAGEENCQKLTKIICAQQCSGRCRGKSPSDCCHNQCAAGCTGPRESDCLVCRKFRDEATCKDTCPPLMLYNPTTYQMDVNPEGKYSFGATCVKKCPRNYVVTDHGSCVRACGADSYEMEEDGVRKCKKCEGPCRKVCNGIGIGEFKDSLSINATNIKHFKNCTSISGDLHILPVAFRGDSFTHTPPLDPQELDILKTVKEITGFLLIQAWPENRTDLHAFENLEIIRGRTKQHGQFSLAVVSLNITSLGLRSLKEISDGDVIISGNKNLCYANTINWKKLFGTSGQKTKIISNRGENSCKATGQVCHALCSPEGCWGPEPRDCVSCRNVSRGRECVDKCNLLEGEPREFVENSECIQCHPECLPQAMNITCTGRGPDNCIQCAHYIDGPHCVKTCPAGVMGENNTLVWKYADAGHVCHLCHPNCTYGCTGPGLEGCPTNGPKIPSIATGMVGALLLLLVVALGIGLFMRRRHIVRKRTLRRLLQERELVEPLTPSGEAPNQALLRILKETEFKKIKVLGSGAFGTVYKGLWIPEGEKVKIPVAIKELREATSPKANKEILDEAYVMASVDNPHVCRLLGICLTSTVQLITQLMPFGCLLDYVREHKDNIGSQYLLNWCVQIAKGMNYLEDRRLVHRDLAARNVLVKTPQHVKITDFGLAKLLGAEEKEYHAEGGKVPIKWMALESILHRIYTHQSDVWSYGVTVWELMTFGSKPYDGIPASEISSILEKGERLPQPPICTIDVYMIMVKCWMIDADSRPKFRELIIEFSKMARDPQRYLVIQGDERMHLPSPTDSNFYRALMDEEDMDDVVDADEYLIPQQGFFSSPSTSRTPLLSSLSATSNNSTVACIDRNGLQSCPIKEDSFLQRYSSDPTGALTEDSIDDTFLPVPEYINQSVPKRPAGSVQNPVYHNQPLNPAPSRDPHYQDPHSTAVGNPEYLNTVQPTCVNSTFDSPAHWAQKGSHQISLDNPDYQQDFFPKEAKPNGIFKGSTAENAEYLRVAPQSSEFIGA
From the text for A. flavus: (§1) They were all tested against Gram-positive bacteria such as Staphylococcus aureus and Bacillus subtilis as well as Gram-negative bacteria such as Escherichia coli and Pseudomonas aeuroginosa. Also, the antifungal activity was investigated against Candida albicans and Aspergillus flavus strains. Gentamycin was used as the standard antibacterial drug whereas ketoconazole was regarded as the primary antifungal one.
(§2) They were all tested against Gram-positive bacteria such as S. aureus and B. subtilis as well as Gram-negative bacteria such as E. coli and P. aeuroginosa. Also, the antifungal activity was investigated against C. albicans and A. flavus subtypes. Gentamycin was used as the standard antibacterial drug whereas ketoconazole was regarded as the primary antifungal one.
From the text for C. albicans: as §1, §2
From the text for E. coli: as §1, §2
Method for HepG-2: (§3) The antitumor activities of the newly synthesized derivatives against two cancer cell lines (HepG-2 and MCF-7). Both cell lines were purchased from ATCC (American Type Culture Collection) via the holding company for biological products and vaccines (VACSERA, Cairo, Egypt). The cytotoxicity was assessed using the SRB colorimetric assay.[47]
Method for MCF-7: as §3
From the text for P. aeuroginosa: as §1, §2

As to `N#Cc1c(N)c2c(-c3cccs3)cc(-c3ccc(O)cc3)nc2[nH]c1=O` [6a, 4-amino-7-(4-hydroxyphenyl)-2-oxo-5-(thiophen-2-yl)-1,2-dihydro-1,8-naphthyridine-3-carbonitrile], the melting point was found to be 260 °C. Further, in the series with MCF-7, the IC50 stood at 19.1 ± 1.6 µM and the “anti-proliferative activity against MCF-7, in words” value is “strong”. Also, in the series on B. subtilis, the “B. subtilis Diameter of inhibition zone (mm)” value is given as 9 mm and the “B. subtilis % Activity index” value was 40.9%. In addition, in the series on S. aureus, the “S. aureus Diameter of inhibition zone (mm)” value turned out to be 5 mm and the “S. aureus % Activity index” value is on record as 27.8%. For the same compound, in the series on HepG-2, the IC50 is 16.2 ± 1.3 µM and the “anti-proliferative activity against HepG-2, in words” value was “strong”. On EGFR, the IC50 turned out to be 0.326 µM. In addition, in the series on E. coli, the “E. coli Diameter of inhibition zone (mm)” value is given as 4 mm and the “E. coli % Activity index” value is given as 19.0%. For the same compound, in the series on P. aeuroginosa, the “P. aeuroginosa Diameter of inhibition zone (mm)” value is 7 mm and the “P. aeuroginosa % Activity index” value was found to be 36.8%. Besides, in the series on A. flavus, the “A. flavus Diameter of inhibition zone (mm)” value is on record as 8 mm and the “A. flavus % Activity index” value is 30.8%. Also, in the series with C. albicans, the “C. albicans Diameter of inhibition zone (mm)” value is on record as 12 mm and the “C. albicans % Activity index” value amounted to 42.8%.
Take `CCOC(=O)CSC(=S)N1N=C(c2ccc(O)cc2)CC1c1cccs1` (centres unmarked) [17a, Ethyl 2-((3-(4-hydroxyphenyl)-5-(thiophen-2-yl)-4,5-dihydro-1H-pyrazole-1-carbonothioyl)thio)acetate]: the melting point was found to be 200 °C. Also, in the series on MCF-7, the IC50 came out at 36.9 ± 2.2 µM and the “anti-proliferative activity against MCF-7, in words” value is reported as “moderate”. Besides, in the series on B. subtilis, the “B. subtilis Diameter of inhibition zone (mm)” value turned out to be 11 mm and the “B. subtilis % Activity index” value is recorded as 50.0%. In the series on B. subtilis (setting [1]), the “antimicrobial activity with B. subtilis, in words” value is listed as “weak”. In addition, in the series on S. aureus, the “S. aureus Diameter of inhibition zone (mm)” value was determined as 6 mm and the “S. aureus % Activity index” value was found to be 33.3%. The “antimicrobial activity with S. aureus, in words” value in the series on S. aureus (setting [1]) is “weak”. In the series with HepG-2, the IC50 is 62.4 ± 3.3 µM and the “anti-proliferative activity against HepG-2, in words” value is reported as “weak”. In the series with E. coli, the “E. coli Diameter of inhibition zone (mm)” value stood at 7 mm and the “E. coli % Activity index” value is 33.3%. In addition, the “antimicrobial activity with E. coli, in words” value in the series on E. coli (setting [1]) is recorded as “weak”. In the series on P. aeuroginosa, the “P. aeuroginosa Diameter of inhibition zone (mm)” value was 9 mm and the “P. aeuroginosa % Activity index” value is given as 47.4%. In the series with P. aeuroginosa (setting [1]), the “antimicrobial activity with P. aeuroginosa, in words” value was “weak”. In the series on A. flavus, the “A. flavus Diameter of inhibition zone (mm)” value is 8 mm and the “A. flavus % Activity index” value turned out to be 30.8%. In addition, the “antimicrobial activity with A. flavus, in words” value with A. flavus (setting [1]) is on record as “weak”. Moreover, in the series on C. albicans, the “C. albicans Diameter of inhibition zone (mm)” value worked out at 10 mm and the “C. albicans % Activity index” value is on record as 35.7%. In addition, in the series with C. albicans (setting [1]), the “antimicrobial activity with C. albicans, in words” value was “weak”.

These data come from PMC10112504, “Novel 4-thiophenyl-pyrazole, pyridine, and pyrimidine derivatives as potential antitumor candidates targeting both EGFR and VEGFR-2; design, synthesis, biological evaluations, and in silico studies” (RSC Advances, 2023).
